Series [1] has as its system Respiratory Syncytial Virus (RSV) long strain (ATCC#VR-26). Description: RSV Antiviral Assay (CPE reduction assay). Particulars: human respiratory syncytial virus, 120 h; HEp-2 cells infected with RSV long strain, 5 days, CCK-8 readout; bins (Table 2: less than 1 μM; Table 3: equal to or higher than 1 μM and less than 50 μM); read-out: 50% effective concentration (EC50). It is filed as cell-based. The procedure:
CPE reduction assays are performed as described by Sidwell and Huffman et al., Appl. Microbiol. (1971) 22(5):797-801 with slight modifications. HEp-2 cells (ATCC#, CCL-23) are seeded at a density of 1,500 cells/30 μl/well into the 384-well cell plate(s) (Corning#3701) one day prior to the assay. Compounds are added into 384-well cell plates by Labcyte POD 810 Plate Assembler system. Each of the test compounds is provided to duplicate wells of a 384-well cell plate at final concentrations starting from 100 μM or 1 μM using ⅓ stepwise dilutions for 9 points. Quick-thaw Respiratory Syncytial Virus (RSV) long strain (ATCC#VR-26) stock in a 37° C. water bath. Place on ice until ready to use. Viruses are diluted to the concentration of 100 TCID50/30 μl with medium and 30 μl diluted RSV are added into related wells of 384-well cell plates. For each plate, sixteen wells are set aside as uninfected, untreated cell controls (CC), and nine wells per test plate receive virus only as a control for virus replication (VC). The final DMSO concentration of all wells is 1%. Place the plates at 37° C., 5% CO2 for 5 days.
After 5 days incubation, observe the CPE of cells in all wells. […] Six μl of cell counting kit-8 reagent (CCK-8, Dojindo Molecular Technologies Inc., CK04-20) are added to each well, which allows colorimetric assays to determine the number of viable cells through the dehydrogenase activity detection. After 3-4 hour incubation, the absorbance of each well is measured with a spectrophotometric plate reader at 450 nm wavelength, using a 630 nm filter as background according to manufacturer's instruction. The 50% effective concentration (EC50) is calculated by using regression analysis, based on the mean O.D. at each concentration of compound.

Series [2] is described as follows: Cytotoxicity Determination. It is filed as cell-based. Particulars: human, HEp-2 cells, without addition of virus, CCK-8 readout, bins (Table 4: greater than 100 μM; Table 5: equal to or less than 100 μM and greater than 10 μM), read-out: 50% cytotoxicity concentration (CC50). A digest of the protocol: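 Uninfected cells were exposed to compounds in duplicate over a 7-point ½ dilution series starting at 100 μM final, for 5 days at 37 °C, 5% CO2. CCK-8 was then added for 3-4 h, and CC50 was calculated from optical density.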

The values that follow come from patent US9724351B2, “Compounds for the treatment of paramoxyvirus viral infections” (priority 2012, dated 2017).

pEC50: −log10 of the molar value. Some results are limits rather than exact numbers.

Regarding `CCCCC/C(=N\NC(=O)CNC(=O)c1ccc(OC)c(OC)c1)c1csc2ccccc12` [Compound 448A], in series [1], the pEC50 is 4.30 to 6.00. Besides, in series [2], the CC50 at 5 days is 10 to 100 µM.
On to `COc1ccc(C(=O)NCC(=O)N/N=C(\C)c2ccnc3ccccc23)cc1OC` [Compound 449], for which, in series [1], the pEC50 was 4.30 to 6.00. In series [2], the CC50 at 5 days was over 100 µM.
The matching figures for `COc1cccc(/C(=N/NC(=O)CNC(=O)c2ccc(OC)c(OC)c2)C(F)(F)F)c1` [Compound 450]: 4.30 to 6.00 and over 100 µM.
The matching figures for `COc1ccc(C(=O)NCC(=O)N/N=C2\CCSc3ccccc32)cc1OC` [Compound 451]: 4.30 to 6.00 and over 100 µM.
For the compound `COc1ccc(C(=O)NCC(=O)N/N=C2\CCOc3ccccc32)cc1OC` [Compound 452], the pEC50 in series [1] is 4.30 to 6.00. The CC50 at 5 days in series [2] is over 100 µM.
For `CCCCCC/C(=N\NC(=O)CNC(=O)c1ccc(OC)c(OC)c1)c1csc2ccccc12` [Compound 453] the same measures were 4.30 to 6.00 and 10 to 100 µM.
For `COc1ccc(C(=O)NCC(=O)N/N=C(\C#N)c2ccccc2)cc1OC` [Compound 454] the same measures were 4.30 to 6.00 and over 100 µM.
Regarding `COc1ccc(C(=O)NCC(=O)N/N=C(\CCC(C)C)c2csc3ccccc23)cc1OC` [Compound 455A], the pEC50 in series [1] is over 6.00. Besides, the CC50 at 5 days in series [2] is over 100 µM.
For `COc1ccc(C(=O)NCC(=O)N/N=C(\CC#N)c2csc3ccccc23)cc1OC` [Compound 456] the same measures were 4.30 to 6.00 and over 100 µM.
Consider `CCOc1ccc(C(=O)NCC(=O)N/N=C(\C)c2csc3ccccc23)cc1OCC` [Compound 457], for which, in series [1], the pEC50 is over 6.00. In addition, the CC50 at 5 days in series [2] was 10 to 100 µM.
The matching figures for `C=CCC/C(=N\NC(=O)CNC(=O)c1ccc(OCC)c(OC)c1)c1csc2ccccc12` [Compound 458A]: over 6.00 and 10 to 100 µM.
Take `CCOc1ccc(C(=O)NCC(=O)N/N=C(\CCc2ccccc2)c2csc3ccccc23)cc1OC` [Compound 459]: the pEC50 in series [1] is over 6.00. In series [2], the CC50 at 5 days was over 100 µM.
With `CCOc1ccc(C(=O)NCC(=O)N/N=C(\CC2CCCCC2)c2csc3ccccc23)cc1OC` [Compound 460], the pEC50 in series [1] was over 6.00. For the same compound, the CC50 at 5 days in series [2] is over 100 µM.
With `CCOc1ccc(C(=O)NCC(=O)N/N=C(\C)c2csc3c(F)cccc23)cc1OC` [Compound 461], the pEC50 in series [1] was over 6.00. For the same compound, the CC50 at 5 days in series [2] lay in the range of 10 to 100 µM.
`CCCC/C(=N\NC(=O)CNC(=O)c1ccc(OCC)c(OC)c1)c1csc2c(F)cccc12` [Compound 462A]: the pEC50 in series [1] is over 6.00. Moreover, in series [2], the CC50 at 5 days is over 100 µM.
The matching figures for `CCCC/C(=N/NC(=O)CNC(=O)c1ccc(OCC)c(OC)c1)c1csc2c(F)cccc12` [Compound 462B]: over 6.00 and 10 to 100 µM.
Regarding `CCOc1ccc(C(=O)NCC(=O)N/N=C(\CCOC)c2csc3c(F)cccc23)cc1OC` [Compound 463A], the pEC50 in series [1] is over 6.00. Further, the CC50 at 5 days in series [2] was over 100 µM.
For the compound `CCOc1ccc(C(=O)NCC(=O)N/N=C(/CCOC)c2csc3c(F)cccc23)cc1OC` [Compound 463B], the pEC50 in series [1] is over 6.00. Also, the CC50 at 5 days in series [2] was over 100 µM.
For `CCOc1ccc(C(=O)NCC(=O)N/N=C2\CN(CC)Cc3sc4c(F)cccc4c32)cc1OC` [Compound 464], the pEC50 in series [1] was over 6.00. In addition, the CC50 at 5 days in series [2] was over 100 µM.
Consider `CCOc1ccc(C(=O)NCC(=O)N/N=C(\C)c2csc3cnccc23)cc1OC` [Compound 466], for which the pEC50 in series [1] is 4.30 to 6.00. For the same compound, the CC50 at 5 days in series [2] was over 100 µM.
For `C/C(=N\NC(=O)CNC(=O)c1ccc(N2CCCCC2)cc1)c1csc2ccccc12` [Compound 467] the same measures were 4.30 to 6.00 and over 100 µM.
`C/C(=N\NC(=O)CNC(=O)c1ccc(N2CCCC2)cc1)c1csc2ccccc12` [Compound 468]: the pEC50 in series [1] is 4.30 to 6.00. In addition, the CC50 at 5 days in series [2] was over 100 µM.
With `CCN(CC)c1ccc(C(=O)NCC(=O)N/N=C(\C)c2csc3ccccc23)cc1` [Compound 469], in series [1], the pEC50 was 4.30 to 6.00. In addition, the CC50 at 5 days in series [2] fell in the range of 10 to 100 µM.
For `C/C(=N\NC(=O)CNC(=O)c1ccc2c(c1)OCCN2C)c1csc2ccccc12` [Compound 470] the same measures were 4.30 to 6.00 and over 100 µM.
The matching figures for `C/C(=N\NC(=O)CNC(=O)c1ccc2c(c1)OCCO2)c1csc2ccccc12` [Compound 471]: 4.30 to 6.00 and over 100 µM.
Regarding `C/C(=N\NC(=O)CNC(=O)c1ccc2c(c1)OC(F)(F)O2)c1csc2ccccc12` [Compound 474], the pEC50 in series [1] was 4.30 to 6.00. Further, the CC50 at 5 days in series [2] is 10 to 100 µM.
Regarding `COc1cc(C(=O)NCC(=O)N/N=C(\C)c2csc3ccccc23)ccc1OC(C)C` [Compound 475], the pEC50 in series [1] was over 6.00. Moreover, in series [2], the CC50 at 5 days was over 100 µM.
Consider `CCCC/C(=N\NC(=O)CNC(=O)c1ccc(OC(C)C)c(OC)c1)c1csc2ccccc12` [Compound 476], for which, in series [1], the pEC50 was over 6.00. Besides, the CC50 at 5 days in series [2] is over 100 µM.
Turning to `COc1cc(C(=O)NCC(=O)N/N=C(\C)c2csc3ccccc23)ccc1O` [Compound 478], in series [1], the pEC50 was 4.30 to 6.00. For the same compound, the CC50 at 5 days in series [2] lay within 10 to 100 µM.
For `COc1cc(Br)c(C(=O)NCC(=O)N/N=C(\C)c2csc3ccccc23)cc1OC` [Compound 479] the same measures were 4.30 to 6.00 and 10 to 100 µM.
As for `COc1cc(OC)c(C(=O)NCC(=O)N/N=C(\C)c2csc3ccccc23)cc1OC` [Compound 480], the pEC50 in series [1] was 4.30 to 6.00. Also, the CC50 at 5 days in series [2] was over 100 µM.
With `COc1ccc(C(=O)NCC(=O)N/N=C(\C)c2csc3ccccc23)c(OC)c1OC` [Compound 481], the pEC50 in series [1] is 4.30 to 6.00. The CC50 at 5 days in series [2] was over 100 µM.
For `COc1cc(Cl)c(C(=O)NCC(=O)N/N=C(\C)c2csc3ccccc23)cc1OC` [Compound 482] the same measures were 4.30 to 6.00 and 10 to 100 µM.
For `CCCCOc1ccc(C(=O)NCC(=O)N/N=C(\C)c2csc3ccccc23)cc1OC` [Compound 483], in series [1], the pEC50 was 4.30 to 6.00. For the same compound, the CC50 at 5 days in series [2] was 10 to 100 µM.
For `COc1ccc(C(=O)NCC(=O)N/N=C/c2c(C)n(C)c3ccccc23)cc1OC` [Compound 486] the same measures were 4.30 to 6.00 and 10 to 100 µM.
For `CCCC/C(=N\NC(=O)CNC(=O)c1ccc(OCC)c(OC)c1)c1csc2ccccc12` [Compound 488] the same measures were over 6.00 and over 100 µM.
In the case of `COc1ccc(C(=O)NCC(=O)N/N=C(\CCCC(C)C)c2csc3ccccc23)cc1OC` [Compound 489], in series [1], the pEC50 is 4.30 to 6.00. Also, the CC50 at 5 days in series [2] fell in the range of 10 to 100 µM.
Consider `COc1ccc(C(=O)NCC(=O)N/N=C/c2csc3c(F)cccc23)cc1OC` [Compound 490], for which the pEC50 in series [1] was over 6.00. The CC50 at 5 days in series [2] is over 100 µM.
For `COc1ccc(C(=O)NCC(=O)N/N=C(\C)c2noc3ccccc23)cc1OC` [Compound 491] the same measures were 4.30 to 6.00 and over 100 µM.
Regarding `COc1ccc(C(=O)NCC(=O)N/N=C(\CCO)c2csc3ccccc23)cc1OC` [Compound 492], the pEC50 in series [1] is over 6.00. Also, in series [2], the CC50 at 5 days was over 100 µM.
For the compound `COCC/C(=N\NC(=O)CNC(=O)c1ccc(OC)c(OC)c1)c1csc2ccccc12` [Compound 493], the pEC50 in series [1] was over 6.00. Moreover, the CC50 at 5 days in series [2] is over 100 µM.
Take `COCC/C(=N/NC(=O)CNC(=O)c1ccc(OC)c(OC)c1)c1csc2ccccc12` [Compound 494]: in series [1], the pEC50 was over 6.00. For the same compound, the CC50 at 5 days in series [2] was over 100 µM.
For `COc1ccc(C(=O)NCC(=O)N/N=C(\CCc2ccccc2)c2csc3ccccc23)cc1OC` [Compound 495] the same measures were 4.30 to 6.00 and 10 to 100 µM.
`COc1ccc(C(=O)NCC(=O)N/N=C/c2ccc3ccsc3c2)cc1OC` [Compound 496]: the pEC50 in series [1] is 4.30 to 6.00. Besides, the CC50 at 5 days in series [2] is 10 to 100 µM.
In the case of `COc1ccc(C(=O)NCC(=O)N/N=C(\C)c2csc3c(N)cccc23)cc1OC` [Compound 497], in series [1], the pEC50 is 4.30 to 6.00. In addition, the CC50 at 5 days in series [2] is over 100 µM.
For the compound `CCOC(=O)c1c[nH]c2c(/C=N/NC(=O)CNC(=O)c3ccc(OC)c(OC)c3)csc2c1=O` [Compound 498], the pEC50 in series [1] was 4.30 to 6.00. The CC50 at 5 days in series [2] is over 100 µM.
For `CCN(CC)c1ccc(C(=O)NCC(=O)N/N=C(\C)c2csc3ccccc23)cc1OC` [Compound 500] the same measures were 4.30 to 6.00 and over 100 µM.
